In article PMC10246557, “Kinetic and inhibition studies on human Jumonji-C (JmjC) domain-containing protein 5” (RSC Chemical Biology, 2023):
Where two headings read alike, the source gives them in different places.

Columns and labels:
human JMJD5 = target: T1, human JMJD5 (Homo sapiens, UniProt Q8N371); assay: SPE-MS JMJD5 turnover and kinetic assay (RPS6_128–148 hydroxylation); format: biochemical; details: for JMJD5 (%): RPS6_128–148 hydroxylation with the compound as cosubstrate: absence of 2OG, JMJD5 0.15 μM, 2OG derivative 400 μM, Fe(II) 20 μM, RPS6_128–148 2.0 μM
T1 construct: made in house; host or cells: Escherichia coli BL21(DE3)
Procedure: JMJD5 turnover assays for time course and kinetic experiments were performed in 96-well polypropylene assay plates (Greiner) with either […] total reaction volume using the concentrations given in the manuscript or ESI, ^† and JMJD5-catalysed substrate hydroxylation was directly monitored using SPE-MS. […] Assay samples were aspirated under vacuum for 0.6 s and loaded onto a C4 solid phase extraction (SPE) cartridge. After loading, the C4 SPE cartridge was washed with 0.1%v/v aqueous formic acid to remove non-volatile buffer salts (5.5 s, 1.5 mL min^−1). The peptide was eluted from the SPE cartridge with 0.1%v/v aqueous formic acid in 80/20v/v acetonitrile/water into the mass spectrometer (5.5 s, 1.5 mL min^−1) and the SPE cartridge re-equilibrated with 0.1%v/v aqueous formic acid (0.5 s, 1.5 mL min^−1). The mass spectrometer was operated using the MassHunter Workstation B.08.00 software (Agilent), the mass spectrometer parameters were: capillary voltage (4000 V), nozzle voltage (1000 V), fragmentor voltage (365 V), gas temperature (280 °C), gas flow (13 L min^−1), sheath gas temperature (350 °C), sheath gas flow (12 L min^−1). […] Data were exported into Microsoft Excel and used to calculate the % conversion of the hydroxylation reaction using the equation: % conversion = 100 × (integral product peptide)/(integral substrate peptide + integral product peptide).
parameters (continues on the following two pages). Maximum velocities (vapp ) and Michaelis constants (Kapp)
of JMJD5 were determined in independent triplicates, monitoring the JMJD5-catalyzed hydroxylation of the
SPE-MS, as described (Experimental Section).
20 °C). Measurement times were normalized to the first sample injection analyzed after the addition of JMJD5 to
shown as the mean of three independent runs (n = 3; mean ± standard deviation, SD).
hexahydrate (20 μM, (NH4)2Fe(SO4)2·6H2O); and (b) hydroxylation rates used to determine kinetic parameters of
(1 picture or pasted object on this page, not shown here)
Maximum velocities (vapp ) and
Michaelis constants (Kapp) of JMJD5 were determined in independent triplicates for (1R)-3-
(carboxycarbonyl)cyclopentane-1-carboxylic acid (14), monitoring the JMJD5-catalyzed hydroxylation of the
as described (Experimental Section).
pH 7.5, 20 °C). Measurement times were normalized to the first sample injection analyzed after the addition of
(§1) Data are shown as the mean of three independent runs (n = 3; mean ± SD).
to determine kinetic parameters of JMJD5 for 14.

human AspH = details: absence of 2OG; AspH 0.1 μM, 2OG derivative 330 μM, Fe(II) 50 μM, hFX-CP101–119 2.0 μM; cited from earlier work
human KDM4E = target: T2, human KDM4E (Homo sapiens, UniProt B2RXH2); assay: KDM4E SPE-MS turnover and kinetic assay (H3 K9(me3) peptide demethylation); format: biochemical; details: for K app m / k app cat: 0.15 μM KDM4E, ARTAQTARK(me3)STGGIA 10 μM
T2 sequence (B2RXH2 1-506): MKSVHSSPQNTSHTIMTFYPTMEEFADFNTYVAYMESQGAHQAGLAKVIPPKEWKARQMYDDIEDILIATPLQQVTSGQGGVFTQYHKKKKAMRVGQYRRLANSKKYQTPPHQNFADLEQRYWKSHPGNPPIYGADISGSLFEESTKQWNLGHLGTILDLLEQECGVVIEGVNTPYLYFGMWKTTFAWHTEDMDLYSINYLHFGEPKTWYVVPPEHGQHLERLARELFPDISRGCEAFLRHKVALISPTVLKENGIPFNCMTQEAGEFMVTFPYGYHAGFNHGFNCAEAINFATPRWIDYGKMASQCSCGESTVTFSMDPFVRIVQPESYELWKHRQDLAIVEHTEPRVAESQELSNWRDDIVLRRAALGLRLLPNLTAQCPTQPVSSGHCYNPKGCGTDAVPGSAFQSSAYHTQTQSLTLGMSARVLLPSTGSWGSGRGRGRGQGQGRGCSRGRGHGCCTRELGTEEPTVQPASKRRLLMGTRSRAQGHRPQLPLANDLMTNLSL
Procedure: KDM4E turnover and inhibition assays were performed as reported using recombinant human KDM4E and a histone 3 K9(me3) derivative (i.e. […](me3)STGGIA)[41] as substrate.[95]
Supplementary Figure S3. Rates of KDM4E-catalyzed Nε-trimethyl lysine demethylations of a histone 3- […]
Maximum velocities (vapp ) and Michaelis […]
catalyzed Nε-trimethyl lysine demethylation of the histone 3 K9(me3)-derived peptide […]
(me3)STGGIA2 by SPE-MS as described;3 note that mono-, di-, and tri-demethylated product […]
buffer (50 mM MES, pH 7.0, 20 °C). Measurement times were normalized to the first sample injection analyzed […]
as §1
(a) Time course of the KDM4E-catalyzed Nε-trimethyl lysine demethylation reaction of the […]

human FIH = details: FIH 0.15 μM, cited from earlier work; for FIH (%): substrate hydroxylation with the compound as cosubstrate: absence of 2OG, 2OG derivative 330 μM, Fe(II) 50 μM, HIF-1α788–822 5.0 μM; for K m / k cat: HIF-1α788–822 substrate
[1] = absence of 2OG, KDM4E 0.15 μM, 2OG derivative 330 μM, Fe(II) 50 μM, ARTAQTARK(me3)STGGIA 10.0 μM

T1 sequence (Q8N371 whole entry): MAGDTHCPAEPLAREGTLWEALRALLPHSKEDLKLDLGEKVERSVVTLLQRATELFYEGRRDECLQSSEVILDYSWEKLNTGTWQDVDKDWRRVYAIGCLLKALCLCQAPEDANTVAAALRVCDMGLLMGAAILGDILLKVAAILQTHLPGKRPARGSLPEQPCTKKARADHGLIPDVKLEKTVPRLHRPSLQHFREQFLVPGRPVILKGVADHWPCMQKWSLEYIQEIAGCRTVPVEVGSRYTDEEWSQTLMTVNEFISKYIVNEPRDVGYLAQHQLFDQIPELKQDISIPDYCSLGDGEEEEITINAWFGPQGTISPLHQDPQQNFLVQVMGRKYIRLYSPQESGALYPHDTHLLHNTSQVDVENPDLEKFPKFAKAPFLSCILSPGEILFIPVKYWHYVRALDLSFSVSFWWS

Compound | JMJD5 (%): RPS6_128–148 hydroxylation with the compound as cosubstrate (human JMJD5) | KDM4E (%): substrate demethylation with the compound as cosubstrate (human KDM4E; [1]) | AspH (%): substrate hydroxylation with the compound as cosubstrate (human AspH) | FIH (%): substrate hydroxylation with the compound as cosubstrate (human FIH) | other results
O=C(O)C(=O)c1ccccc1C(=O)O [Entry 26] | < 1% | < 1% | < 1% | < 1% | 
RCCD1_134–150: RCCD1 amino acids 134–150, LPLLPCARAYVSPRAPF, JMJD5 substrate peptide [reference compound] |  |  |  |  | JMJD5-catalyzed hydroxylation of the substrate peptide (human JMJD5; after 1 h incubation, 50 mM MOPS pH 7.5, 20 °C): < 10%
CC(CC(=O)O)C(=O)C(=O)O (stereo not drawn) [C00003] | ∼10% | ∼10% | >95% | ∼55% | 
O=C1O[C@H]([C@@H](O)CO)C(O)=C1O [LAA, L-ascorbic acid, reference compound] |  |  |  |  | cosubstrate/cofactor role for JMJD5 (human JMJD5): not a cosubstrate/cofactor
O=C(O)CCC(=O)C(=O)O [C00023] |  |  |  |  | K app m (human KDM4E): 4.2 ± 1.1 µM; k app cat (human KDM4E): 0.14 ± 0.01 s⁻¹
O=C(O)C(=O)C1CC[C@@H](C(=O)O)C1 (stereo partly drawn) [C00022] |  |  |  |  | K m (human FIH): 14.8 ± 2.6 µM; k cat (human FIH): 0.01 ± 0.001 s⁻¹
CC(C)CC(CC(=O)C(=O)O)C(=O)O (racemic) [Entry 16] | < 1% | < 1% | < 1% | < 1% | 
O=C(O)CCC(=O)C(=O)O [C00001] | ∼40% |  |  | ∼50% | KDM4E (%): substrate demethylation with the compound as cosubstrate (human KDM4E): ∼70%
O=C(O)C(=O)CC(Cc1ccccc1)C(=O)O (stereo not drawn) [C00010] | <1% | <1% | <1% | <1% | 
O=C(O)C(=O)CC(Cc1ccccc1)C(=O)O (racemic) [Entry 19] | < 1% | < 1% | < 1% | < 1% | 
CC1(C)C(C(=O)O)C1C(=O)C(=O)O (mixture of isomers) [Entry 21] | < 1% | < 1% | < 1% | < 1% | 
CC(C)(CC(=O)C(=O)O)C(=O)O [C00002] |  | <1% |  |  | 
O=C(O)CCC(=O)C(=O)O [C00021] |  |  |  |  | K m (human FIH): 0.8 ± 0.1 µM; k cat (human FIH): 0.04 ± 0.01 s⁻¹
O=C(O)C(=O)c1cscc1C(=O)O [Entry 34] | < 1% | < 1% | < 1% | < 1% | 
O=C(O)C(=O)c1ccccc1C(=O)O [C00014] | <1% | <1% | <1% | <1% | 
O=C(O)CCC(=O)C(=O)O [C00019] |  |  |  |  | K app m (human JMJD5; 0.15 μM JMJD5, 50 mM MOPS pH 7.5, 20 °C, LAA present): 0.29 ± 0.04 µM; k app cat (human JMJD5; 0.15 μM JMJD5, 50 mM MOPS pH 7.5, 20 °C, LAA present, calculated from vmax): 0.0056 ± 0.0002 s⁻¹
O=C(O)C(=O)C1CC[C@@H](C(=O)O)C1 (stereo partly drawn) [C00024] |  |  |  |  | K app m (human KDM4E): No reaction; k app cat (human KDM4E): No reaction
CCC(CC(=O)C(=O)O)C(=O)O (stereo not drawn) [C00004] | ∼10% | <1% | <1% | ∼10% | 

Now from value to compound, other results behind:

JMJD5 (%): RPS6_128–148 hydroxylation with the compound as cosubstrate (human JMJD5) | KDM4E (%): substrate demethylation with the compound as cosubstrate (human KDM4E; [1]) | Compound | AspH (%): substrate hydroxylation with the compound as cosubstrate (human AspH) | FIH (%): substrate hydroxylation with the compound as cosubstrate (human FIH) | other results
<1% | <1% | CCC(CC(=O)O)C(=O)C(=O)O (stereo not drawn) [C00005] | <1% | ∼2% | 
<1% | <1% | CCCC(CC(=O)O)C(=O)C(=O)O (stereo not drawn) [C00007] | <1% | <1% | 
<1% | <1% | O=C(O)C(=O)c1ccc(C(=O)O)cc1 [C00018] | ∼80% | <1% | 
∼10% | ∼5% | COc1ccc(CC(CC(=O)O)C(=O)C(=O)O)cc1 (stereo not drawn) [C00013] | <1% | <1% | 
<1% | <1% | CC1(C)c2ccccc2-c2ccc(CC(CC(=O)O)C(=O)C(=O)O)cc21 (stereo not drawn) [C00015] | <1% | <1% | 
 | <1% | O=C(O)C(=O)C1CC[C@@H](C(=O)O)C1 (stereo partly drawn) [C00012] | ∼15% | ∼2% | 
<1% | <1% | O=C(O)C(=O)c1cccc(C(=O)O)c1 [C00016] | <1% | <1% | 
∼10% | <1% | CCCC(CC(=O)C(=O)O)C(=O)O (stereo not drawn) [C00006] | <1% | ∼5% | 
∼10% | <1% | CC(CC(=O)C(=O)O)C(=O)O (stereo not drawn) [C00017] | ∼10% | ∼45% | 
